Ten molecules from ChEMBL document CHEMBL1201862, “PubChem BioAssay data set” (2004) can be followed below.

Among the test systems are SR; HT-29; NCI-H522; ACHN; UACC-62; MOLT-4; OVCAR-8; 786-0; EKVX; Malme-3M; A498; RPMI-8226; M14; OVCAR-3; SK-MEL-2; MCF7; NCI/ADR-RES; NCI-H226; NCI-H23; HCT-116.
Holding throughout (test): inhibition of tumour cell growth, NCI panel, 48 h

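Briefly, cells in 96-well plates were exposed to five compound concentrations for 48 h, and endpoints were estimated by linear interpolation. GI50: concentration for 50% inhibition of growth.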 Calls of active or inactive are those of the source. Cut-off read from the data, not from the text of the source: active = GI50 up to about 1.1 µM and inactive = higher. A value given as a limit tells only on which side of the number the result lay.

As to `COc1ccc(C(=O)N=C2N(c3ccccc3)C(=N/c3ccccc3)/C(=N\c3ccccc3)N2c2ccccc2)cc1`, the GI50 in the assay on SR was > 100 µM (inactive); with HT-29 it was > 95.3 µM (inactive); in the assay with NCI-H522, 30.7 µM (inactive); in the assay on ACHN it was 22.5 µM (inactive); in the assay on UACC-62 it was 37.1 µM (inactive); in the assay on MOLT-4, > 100 µM (inactive). Further, the GI50 is 20 µM (inactive) in the assay with OVCAR-8; 17.9 µM (inactive) with 786-0; 48.8 µM (inactive) in the assay with EKVX; 20.6 µM (inactive) with Malme-3M; 19.2 µM (inactive) in the assay with A498; > 74.6 µM (inactive) in the assay on RPMI-8226. The GI50 in the assay with M14 is 8.22 µM (inactive); in the assay on OVCAR-3 it was > 100 µM (inactive); in the assay with SK-MEL-2, 21.3 µM (inactive); with MCF7, > 100 µM (inactive); with NCI/ADR-RES, > 100 µM (inactive); with NCI-H226, 29.9 µM (inactive). Also, the GI50 in the assay on NCI-H23 was 39.3 µM (inactive); in the assay on HCT-116, 36.1 µM (inactive).
For the molecule `CCCCC1=NNC(=O)C1`, the GI50 with SR, with HT-29, with NCI-H522, in the assay with ACHN, in the assay with UACC-62 and in the assay on MOLT-4 was > 100 µM (inactive) each time. Also, the GI50 in the assay on OVCAR-8, in the assay with 786-0, in the assay with EKVX, with Malme-3M, in the assay on A498 and in the assay with RPMI-8226 was > 100 µM (inactive) in each case. Moreover, the GI50 in the assay on M14, in the assay on OVCAR-3, in the assay with SK-MEL-2, with MCF7, in the assay on NCI/ADR-RES and with NCI-H226 was > 100 µM (inactive) in each case. Further, the GI50 with NCI-H23 and with HCT-116 was > 100 µM (inactive) each time.
On to `Nc1ccc(-c2nc3ccccc3s2)cc1`, for which the GI50 was 18.4 µM (inactive) in the assay on SR; 19.4 µM (inactive) with HT-29; 20.6 µM (inactive) with NCI-H522; 15.7 µM (inactive) with ACHN; 18.4 µM (inactive) in the assay on UACC-62; 23.1 µM (inactive) in the assay with MOLT-4. The GI50 with OVCAR-8 is 12.8 µM (inactive); in the assay on 786-0, 16.2 µM (inactive); in the assay with EKVX, 33.2 µM (inactive); with Malme-3M, 17.6 µM (inactive); with A498, 29.7 µM (inactive); in the assay on RPMI-8226, 28.6 µM (inactive). The GI50 is 18.6 µM (inactive) with M14; 13.3 µM (inactive) in the assay with OVCAR-3; 25.3 µM (inactive) in the assay on SK-MEL-2; 19.1 µM (inactive) in the assay on MCF7; 22.6 µM (inactive) in the assay with NCI/ADR-RES; 25.3 µM (inactive) in the assay with NCI-H226. Moreover, the GI50 was 18.8 µM (inactive) in the assay with NCI-H23 and 18 µM (inactive) in the assay on HCT-116.
Regarding `COC(=O)C1CC2CC1C1C2SC(F)(F)C1(F)F` (stereo unspecified), the GI50 with SR, with NCI-H522, with ACHN, in the assay on UACC-62, in the assay on MOLT-4 and in the assay on OVCAR-8 was > 100 µM (inactive) each time. Besides, the GI50 in the assay on 786-0, in the assay on EKVX, with Malme-3M, with A498, in the assay with RPMI-8226 and in the assay on M14 was > 100 µM (inactive) in each case. Further, the GI50 in the assay with OVCAR-3, with SK-MEL-2, with MCF7, in the assay on NCI/ADR-RES, in the assay with NCI-H226 and in the assay on HCT-116 was > 100 µM (inactive) throughout.
As for `CN(C)/C=C/c1nnnn1-c1ccc(I)cc1`, the GI50 in the assay on SR is 16.4 µM (inactive); with HT-29 it was 22.9 µM (inactive); in the assay on NCI-H522 it was 25.5 µM (inactive); with ACHN, 22 µM (inactive); with UACC-62 it was 12.4 µM (inactive); in the assay on MOLT-4, 15.1 µM (inactive). Also, the GI50 with OVCAR-8 was 19.5 µM (inactive); in the assay with 786-0, 35.1 µM (inactive); in the assay on EKVX, 21.6 µM (inactive); in the assay with Malme-3M it was 21 µM (inactive); in the assay with A498 it was 40.8 µM (inactive); with RPMI-8226, 12.8 µM (inactive). The GI50 was 14.3 µM (inactive) in the assay on M14; 23.6 µM (inactive) with OVCAR-3; 12 µM (inactive) in the assay on MCF7; 23.8 µM (inactive) in the assay with NCI/ADR-RES; 22.8 µM (inactive) in the assay with NCI-H226; 24.7 µM (inactive) in the assay with NCI-H23. Further, the GI50 with HCT-116 was 10.5 µM (inactive).
As to `CC[C@@]12CCC(=S)N(CCSc3ccccc3)[C@@H]1c1c(n(S(=O)(=O)c3ccc(OC)cc3)c3ccccc13)CC2`, the GI50 in the assay on SR, in the assay with HT-29, with NCI-H522, with UACC-62, with MOLT-4 and with OVCAR-8 was > 100 µM (inactive) each time. Besides, the GI50 is 63.1 µM (inactive) in the assay with 786-0; > 100 µM (inactive) with EKVX; > 100 µM (inactive) with Malme-3M; > 100 µM (inactive) in the assay on A498; > 100 µM (inactive) with RPMI-8226; > 100 µM (inactive) in the assay with M14. Moreover, the GI50 was > 100 µM (inactive) with OVCAR-3; > 100 µM (inactive) in the assay on SK-MEL-2; > 100 µM (inactive) with MCF7; > 100 µM (inactive) with NCI/ADR-RES; 68.1 µM (inactive) with NCI-H226; > 100 µM (inactive) in the assay with NCI-H23. The GI50 in the assay on HCT-116 was > 100 µM (inactive).
Consider `CC(CC[C@@]1(C)C(=O)CCC2O[C@]21C)[C@H]1C[C@@H](c2ccoc2)OC1=O` (stereo partly specified), for which the GI50 is 97.9 µM (inactive) in the assay with SR; 74.5 µM (inactive) in the assay on HT-29; 3.17 µM (inactive) in the assay with NCI-H522; 22.1 µM (inactive) in the assay on ACHN; 95.9 µM (inactive) with UACC-62; 28.3 µM (inactive) in the assay on MOLT-4. In addition, the GI50 with 786-0 was 28.8 µM (inactive); with EKVX, > 100 µM (inactive); in the assay on Malme-3M it was 31.5 µM (inactive); with A498, > 100 µM (inactive); in the assay on RPMI-8226, 35.5 µM (inactive); with M14, 72.9 µM (inactive). Further, the GI50 in the assay with OVCAR-3 was 26.9 µM (inactive); with SK-MEL-2 it was > 100 µM (inactive); with MCF7, 65.6 µM (inactive); with NCI/ADR-RES it was 45.6 µM (inactive); in the assay with NCI-H226, > 100 µM (inactive); with NCI-H23, 61.4 µM (inactive). Further, the GI50 with HCT-116 was 19.5 µM (inactive).
In the case of `Clc1ccc(Cc2nc3cc(Cl)c(Cl)cc3n2CC2CCCN3CCCCC23)cc1` (stereo unspecified), the GI50 in the assay with SR was 3.35 µM (inactive); in the assay on HT-29 it was 3.33 µM (inactive); in the assay on NCI-H522, 12.2 µM (inactive); in the assay with ACHN, 10.1 µM (inactive); in the assay on UACC-62, 7.8 µM (inactive); in the assay on MOLT-4, 4.22 µM (inactive). Moreover, the GI50 was 12.8 µM (inactive) in the assay on OVCAR-8; 11 µM (inactive) with 786-0; 10.3 µM (inactive) in the assay with EKVX; 7.87 µM (inactive) in the assay on Malme-3M; 14.4 µM (inactive) in the assay with A498; 24.5 µM (inactive) in the assay on RPMI-8226. Moreover, the GI50 in the assay on M14 was 2.65 µM (inactive); in the assay on OVCAR-3, 11 µM (inactive); in the assay on SK-MEL-2 it was 16 µM (inactive); with MCF7, 10.7 µM (inactive); in the assay on NCI/ADR-RES, 12.5 µM (inactive); with NCI-H226, 17.3 µM (inactive). For the same molecule, the GI50 with HCT-116 is 9.68 µM (inactive).
As for `CN(C)/N=C1\CC(c2ccccc2)C(C#N)(C#N)C1(C#N)C#N` (stereo unspecified), the GI50 in the assay with SR is 18.5 µM (inactive); in the assay on HT-29, 26.1 µM (inactive); with NCI-H522, 12.2 µM (inactive); with ACHN it was 18.9 µM (inactive); in the assay with UACC-62, 16 µM (inactive); in the assay with MOLT-4, 4.53 µM (inactive). The GI50 with OVCAR-8 is 21.1 µM (inactive); in the assay on 786-0, 17.7 µM (inactive); in the assay on EKVX, 41.6 µM (inactive); with Malme-3M, 16.9 µM (inactive); in the assay with A498, 18.2 µM (inactive); with RPMI-8226, 11.8 µM (inactive). In addition, the GI50 with M14 is 17.4 µM (inactive); in the assay on SK-MEL-2, 21 µM (inactive); with MCF7, 29.9 µM (inactive); in the assay with NCI/ADR-RES it was 26.8 µM (inactive); in the assay on NCI-H226, 23.8 µM (inactive); in the assay with NCI-H23 it was 24.1 µM (inactive). The GI50 in the assay on HCT-116 is 17.8 µM (inactive).
On to `Cc1ccnc(NC(=S)Nc2ccccc2Cl)c1`, for which the GI50 with SR was > 100 µM (inactive); in the assay on HT-29, > 100 µM (inactive); in the assay with NCI-H522, 0.131 µM (active); in the assay on UACC-62 it was 63.1 µM (inactive); in the assay with MOLT-4, > 100 µM (inactive); with OVCAR-8, 77.8 µM (inactive). Also, the GI50 in the assay with 786-0 was > 100 µM (inactive); with EKVX, 40.1 µM (inactive); in the assay with Malme-3M, 53.5 µM (inactive); in the assay on A498 it was > 100 µM (inactive); in the assay on RPMI-8226 it was > 100 µM (inactive); with M14, > 100 µM (inactive). The GI50 in the assay with OVCAR-3 was > 100 µM (inactive); with SK-MEL-2, > 100 µM (inactive); with MCF7, > 100 µM (inactive); in the assay on NCI/ADR-RES, > 100 µM (inactive); in the assay with NCI-H226, 63.5 µM (inactive); in the assay with HCT-116, > 100 µM (inactive).
